Laboratory results reported in patent US7745422B2, “Bisphosphonate compounds and methods for bone resorption diseases, cancer, bone pain, immune disorders, and infectious diseases” (The Board of Trustees of the University of Illinois, priority 2004, dated 2010).
pEC50, pIC50, pKi: −log10 of the molar value. In brackets after ≈: the same amount, converted by molar mass. Where two headings read alike, the source gives them in different places.

Columns and labels:
[1] = test system: Vγ2Vδ2 T cells; assay: gammadelta T cell stimulation (TNF-α release assay); assay type: cell-based, human
Description: (§1) We then investigated the activity of each compound in inhibiting the FPPS from L. major, in Dictyostelium discoideum growth inhibition and in γδ T cell activation. We used the FPPS from L. major since this enzyme is the putative bisphosphonate target in several trypanosomatid species.

[2] = test system: human nasopharyngeal carcinoma cells; assay: Toxicity testing in human nasopharyngeal carcinoma cells; assay type: cell-based; conditions: for IC50: read-out: (5) Toxicity IC50
Procedure: We have obtained data for selected bisphosphonate compounds in the contexts of D. discoideum assays, human FPPS assays, gammadelta T cell stimulation assays, and bone resorption assays. […] Some toxicity testing was also performed. See Table 4 (in some instances, the same data depicted elsewhere herein, e.g., in Table 1, may be presented again to facilitate comparative analysis).

[3] = molecular target: T1, human FPPS (Homo sapiens, UniProt P14324); assay: human FPPS assay; assay type: biochemical
T1 sequence (P14324 1-419): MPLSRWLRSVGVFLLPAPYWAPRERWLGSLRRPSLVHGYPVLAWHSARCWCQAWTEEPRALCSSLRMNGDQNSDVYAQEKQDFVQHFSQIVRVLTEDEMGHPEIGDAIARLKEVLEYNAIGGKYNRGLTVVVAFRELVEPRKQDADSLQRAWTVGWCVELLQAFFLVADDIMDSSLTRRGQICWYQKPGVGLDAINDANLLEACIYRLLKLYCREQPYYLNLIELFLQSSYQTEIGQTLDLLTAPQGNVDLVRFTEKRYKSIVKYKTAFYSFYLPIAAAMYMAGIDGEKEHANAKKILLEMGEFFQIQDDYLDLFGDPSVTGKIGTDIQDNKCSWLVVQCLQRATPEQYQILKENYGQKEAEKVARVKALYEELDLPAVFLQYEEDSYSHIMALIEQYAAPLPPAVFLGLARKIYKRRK

[4] = test system: Dictyostelium discoideum; assay: D. discoideum cell growth inhibition; assay type: cell-based
Description: as §1

[5] = test system: T. cruzi; assay: Activity against T. cruzi; assay type: cell-based; conditions: Trypanosoma cruzi; Table 5; read-out: (8) T. cruzi IC50
Description: (§2) We have obtained data for selected bisphosphonate compounds against parasites including Trypanosoma brucei, Trypanosoma cruzi, and Leishmania major. […] See Table 5 (in some instances, the same data depicted elsewhere herein, e.g., in Table 1, may be presented again to facilitate comparative analysis).

[6] = test system: fetal mouse metatarsals; assay: bone resorption assay: 45Ca2+ release from 17-day old fetal mouse metatarsals; assay type: cell-based; conditions: for pIC50: Table 4
Procedure: Compounds are tested in a bone resorption assay: ^45Ca^2+ release from 17-day old fetal mouse metatarsals (ref. 37).

[7] = molecular target: T2, L. major FPPS (Leishmania major, UniProt Q4QBL1); assay: biochemical; assay type: biochemical
T2 sequence (Q4QBL1 1-362): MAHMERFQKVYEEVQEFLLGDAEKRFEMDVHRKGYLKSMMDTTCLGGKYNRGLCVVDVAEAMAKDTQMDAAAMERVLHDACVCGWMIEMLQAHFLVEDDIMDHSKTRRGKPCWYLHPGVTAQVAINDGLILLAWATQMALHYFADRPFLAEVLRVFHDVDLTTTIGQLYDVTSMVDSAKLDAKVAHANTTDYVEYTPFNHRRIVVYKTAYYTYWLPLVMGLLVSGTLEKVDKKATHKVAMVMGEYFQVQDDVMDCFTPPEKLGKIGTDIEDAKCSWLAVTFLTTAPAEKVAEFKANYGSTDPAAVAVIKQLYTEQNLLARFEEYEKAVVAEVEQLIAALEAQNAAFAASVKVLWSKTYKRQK
Description: as §1

[8] = molecular target: T. brucei soluble vacuolar pyrophosphatase; assay: T. brucei soluble vacuolar pyrophosphatase inhibition; assay type: biochemical, Trypanosoma brucei; conditions: Table 5; read-out: (9) T. brucei soluble vacuolar pyrophosphatase IC50
Description: as §2

[9] = test system: pyrophosphatase enzymes; assay: Pyrophosphatase inhibition; assay type: biochemical
Description: We explored the hypothesis of whether analogs of pyrophosphate could block pyrophosphatase enzymes and/or inhibit cellular growth or function. We used certain bisphosphonate compounds that are currently applied in bone resorption therapy.

[10] = test system: Vγ2Vδ2 T cells; conditions: TNF-α release, footnote b: data from Ref. 30; read-out: gammadelta T cell stimulation, EC50; cited from earlier work
[11] = test system: parasite cell growth; assay: Parasite cell growth inhibition; assay type: cell-based
Description: We explored the hypothesis of whether analogs of pyrophosphate could block pyrophosphatase enzymes and/or inhibit cellular growth or function. We used certain bisphosphonate compounds that are currently applied in bone resorption therapy. The compounds included pamidronate (Aredia®, Novartis), alendronate (Fosamax®, Merck), and risedronate (Actonel®, Procter & Gamble). […] Without wishing to be bound by a particular theory, the compounds appeared to act as inhibitors of isoprenoid biosynthesis (FIG. 6).

[12] = molecular target: T2, L. major FPPS; conditions: read-out: L. major FPPS Ki; Table 1, footnote a: data from Ref. 17; cited from earlier work
[13] = test system: cutaneous leishmaniasis; assay: Treatment of cutaneous leishmaniasis in mice; assay type: in vivo
Description: The average lesion size in treated mice was reduced during a time period of several weeks and in a dose-dependent manner relative to […] mice.

[14] = Homo sapiens, T-cell, read-out: (3) gammadelta T cell stimulation EC50
[15] = Homo sapiens, T-cell, read-out: gammadelta T cell stimulation EC50
[16] = Homo sapiens, T-cell, read-out: gammadelta T cell stimulation, EC50
[17] = Dictyostelium discoideum, read-out: (1) D. discoideum IC50
[18] = Dictyostelium discoideum, read-out: D. discoideum IC50
[19] = TNF-α release, Table 1 and text, read-out: gammadelta T cell stimulation, EC50
[20] = Table 3, additional testing, read-out: gammadelta T cell stimulation EC50
[21] = Table 4, read-out: (1) D. discoideum IC50
[22] = cell growth inhibition, Table 1 and text, read-out: D. discoideum IC50
[23] = Table 1 and text, read-out: L. major FPPS Ki
[24] = Table 4, read-out: (3) gammadelta T cell stimulation EC50
[25] = Table 5, read-out: (7) L. major FPPS Ki
[26] = Table 4, read-out: (2) human FPPS IC50

O=P([O-])(O)C(O)(C[n+]1ccccc1)P(=O)(O)O (stereo not drawn) [Compound 278]
pEC50 [1, 14]: 5.29
pEC50 [1, 15]: 5.32
pEC50 [1, 16]: 5.29
IC50 [2]: 300 mg/L (≈ 1060 µM)
pIC50 [3]: 5.80
pIC50 [4, 17]: 5.59
pIC50 [4, 18]: 5.68
IC50 [5]: 3.07 mg/L (≈ 10.8 µM)
pIC50 ([6]; Mus musculus): 6.17

Cc1ccc[n+](CC(O)(P(=O)([O-])O)P(=O)(O)O)c1 (stereo not drawn) [Compound 297]
pEC50 [1, 19]: 5.34
pEC50 [1, 20]: 5.31
(5) Toxicity IC50 [2]: 5.3 mg/L
pIC50 [4, 21]: 5.55
pIC50 [4, 22]: 5.82
pIC50 [6]: 6.66
pKi [7, 23]: 7.42

O=P([O-])(O)C(O)(C[n+]1cccc(-c2ccccc2)c1)P(=O)(O)O (stereo not drawn) [Compound 300]
pEC50 [1, 14]: 5.43
pEC50 [1, 15]: 5.68
pEC50 [1, 16]: 5.43
IC50 [2]: 5.4 mg/L (≈ 15 µM)
pIC50 [3]: 5.77
pIC50 [4, 17]: 5.55
pIC50 [4, 18]: 5.55
pIC50 ([6]; Mus musculus): 6.39
pIC50 [8]: 4.46

O=P([O-])(O)C(O)(C[n+]1cccc(Cc2ccccc2)c1)P(=O)(O)O (stereo not drawn) [Compound 335]
activity in gammadelta T cell stimulation ([1]; TNF-α release): poor activity
pEC50 [1, 19]: 3.37
pEC50 [1, 20]: 4.20
pEC50 [1, 24]: 3.37
pIC50 [4, 21]: 4.96
pIC50 [4, 22]: 5.07
pKi [7, 23]: 6.80
pKi [7, 25]: 6.80
pIC50 [8]: 4.15

Cc1cccc(Cc2ccc[n+](CC(O)(P(=O)([O-])O)P(=O)(O)O)c2)c1 (stereo not drawn) [Compound 344]
activity in gammadelta T cell stimulation ([1]; TNF-α release): poor activity
pEC50 [1, 19]: 3.85
pEC50 [1, 24]: 3.85
pIC50 [3, 26]: 4.77
pIC50 [4, 21]: 5.07
pIC50 [4, 22]: 5.00
pKi [7, 23]: 7.15
pKi [7, 25]: 7.15
pIC50 [8]: 4.11

O=P([O-])(O)C(O)(C[n+]1cccc(-c2ccc(O)cc2)c1)P(=O)(O)O (stereo not drawn) [Compound 359]
pEC50 [1, 19]: 4.62
pEC50 [1, 24]: 4.62
pIC50 [4, 21]: 5.54
pIC50 [4, 22]: 5.54
pKi [7, 23]: 7.12

CCCCc1ccc[n+](CC(O)(P(=O)([O-])O)P(=O)(O)O)c1 (stereo not drawn) [Compound 445]
pEC50 [1, 19]: 5.28
pEC50 [1, 20]: 5.60
pEC50 [1, 24]: 5.28
pIC50 [4, 21]: 5.52
pIC50 [4, 22]: 5.54
pKi [7, 23]: 7.70

COc1ccc[n+](CC(O)(P(=O)([O-])O)P(=O)(O)O)c1 (stereo not drawn) [Compound 446]
pEC50 [1, 19]: 5.34
pIC50 [4, 21]: 5.22
pIC50 [4, 22]: 5.22
pIC50 [6]: 6.43
pKi [7, 23]: 7.52

O=P([O-])(O)C(O)(C[n+]1cccc(F)c1)P(=O)(O)O (stereo not drawn) [Compound 461]
pEC50 [1, 14]: 5.57
pEC50 [1, 15]: 5.57
pIC50 [4, 17]: 5.43
potency in bone resorption [6]: very potent
pIC50 ([6]; Mus musculus): 7.12
pKi [7, 25]: 7.30

O=P([O-])(O)C(C[n+]1cccc(I)c1)P(=O)(O)O (stereo not drawn) [Compound 542]
pEC50 [1, 24]: 4.92
pIC50 [3, 26]: 5.92
pIC50 [4, 21]: 5.77

CCOc1cccc(-c2ccc[n+](CC(P(=O)([O-])O)P(=O)(O)O)c2)c1 (stereo not drawn) [Compound 588]
pEC50 [1, 24]: 3.92
pIC50 [3, 26]: 4.96
pIC50 [4, 21]: 5.48

O=P([O-])(O)C(O)(C[n+]1cccc(O)c1)P(=O)(O)O (stereo not drawn) [Compound 595]
pEC50 [1, 24]: 3.68
pIC50 [3, 26]: 5.57
pIC50 [4, 21]: 4.31

NCCCC(O)(P(=O)(O)O)P(=O)(O)O [alendronate]
inhibition of pyrophosphatases [9]: did not appear necessarily to inhibit
pEC50 [10]: 4.28
parasite cell growth inhibition [11]: did inhibit

O=P(O)(O)C(NC1CCCCCC1)P(=O)(O)O [incadronate]
pIC50 [4, 22]: 5.80
pEC50 [10]: 4.82
pKi [12]: 7.64

NCCC(O)(P(=O)(O)O)P(=O)(O)O [pamidronate]
inhibition of pyrophosphatases [9]: did not appear necessarily to inhibit
treating cutaneous leishmaniasis ([13]; mice): effective
average lesion size ([13]; treated mice, several weeks, dose-dependent): reduced
parasite cell growth inhibition [11]: did inhibit

O=P(O)(O)C(O)(Cc1cccnc1)P(=O)(O)O [risedronate]
inhibition of pyrophosphatases [9]: did not appear necessarily to inhibit
pEC50 [10]: 5.21
parasite cell growth inhibition [11]: did inhibit
